The experiment has as its system mutansucrase. The experiment in a line: Inhibition of water insoluble glucan synthesis (absorbance at 550 nm; adherence to glass vials). The experiment is classed as biochemical, Streptococcus mutans and S. sorbrinus. The following applies: 50 mM test substance, 1 M sucrose, 37° C., 48 h. Here is the method: Isolation of Oral Bacteria and Production of Mutansucrase: Oral bacteria were collected by a cotton swab from human teeth and streaked onto a brain heart infusion (BHI) agar containing 4% sucrose. The culture was grown at 37° C. until visible colonies of Streptococcus mutans and S. sorbrinus appeared. The colonies were grown in 1 L BHI at 37° C. with shaking at 150 rpm for 24-36 h to induce production of mutansucrase secreted outside the cell membrane. After incubation, the culture was harvested by centrifugation, and the supernatant with the mutansucrase was concentrated to 100 ml using a 30 K cut-off membrane filter. One unit of mutansucrase in the concentrated supernatant was defined as the amount of enzyme that catalyzes the formation of 1 μmol of fructose per minute at 37° C., pH 7.0, from 100 mM sucrose.
These cultures were grown in glass vials at 37° C. for 48 h.
The supernatants of individual reaction mixtures were discarded such that the insoluble glucans remained in the vial. To compare the amount of insoluble glucans produced, the synthesized glucans on the glass were washed with a HEPES buffer and dissolved in 0.5 N NaOH. The resulting wash was used to measure the soluble glucans. The absorbance of water insoluble glucans was measured at 550 nm. For visualization, synthesized glucans were dyed with a drop of dental disclosing solution.

The values that follow come from patent US20110076240A1, “Antifungal and Anti-Cariogenic Cellobio-Oligosaccharides Produced by Dextransucrase” (priority 2008, published 2011).

With `O=C[C@H](O)[C@@H](O)[C@H](O[C@@H]1O[C@H](CO)[C@@H](O)[C@H](O)[C@H]1O)[C@H](O)CO` [cellobiose], the “insoluble glucans produced compared to the control mixture” value is “did not affect”.
